According to patent US6670377B1, “Quinoline derivatives, having in particular antiviral properties, preparation and biological applications thereof” (Centre National de la Recherche, priority 1997, dated 2003):
Entries after “also recorded” stand apart in the source; their conditions may differ.

Key:
HIV-1 integrase [1] = target: T1, HIV-1 integrase (Human immunodeficiency virus type 1 group M subtype B, UniProt P04585); assay: endonucleolytic cleavage test of HIV-1 integrase (21 bp oligonucleotide); type: biochemical; settings: read-out: endonucleolytic cleavage, concentration necessary to block 50% of the activity of HIV-1 integrase
HIV-1 integrase [2] = target: T1, HIV-1 integrase; assay: strand transfer test of HIV-1 integrase; type: biochemical; settings: read-out: strand transfer, concentration necessary to block 50% of the activity of HIV-1 integrase
HIV-1 integrase [3] = target: T1, HIV-1 integrase; assay: disintegration test of HIV-1 integrase; type: biochemical; settings: read-out: disintegration, concentration necessary to block 50% of the activity of HIV-1 integrase
HIV-1 integrase [4] = target: T1, HIV-1 integrase; settings: three tests: endonucleolytic cleavage, strand transfer, disintegration
Procedure: 1—The endonucleolytic activity of the protein is tested on a double-strand oligonucleotide of 21 base pairs, radiolabelled at the 5′ end. The activity of the integrase is expressed by elimination of the dinucleotide at the 3′ end.
2—The strand transfer test is carried out with a double-strand oligonucleotide of 21 base pairs mimicking the end of the viral DNA, the 3′ terminal dinucleotide of which has been supressed. The activity of the protein is expressed by the covalent insertion of this oligonucleotide in a homologous oligonucleotide.
3—The disintegration test is carried out with a substrate mimicking the structure of the integrated viral DNA. The quantity of DNA excised by the integrase is measured. This last test only quantifies the catalytic activity of the protein excluding its fixation activity on the DNA.

EcoRI restriction enzyme = EcoRI restriction enzyme (Escherichia coli, UniProt P00642); assay: inhibition of cleavage of linearized pSP65 plasmid by EcoRI; type: biochemical; settings: 4 hours, 0.1 units EcoRI
Procedure: The catalytic site of HIV-1 integrase is very close to that of the EcoRI restriction enzyme. The compounds which block both proteins are therefore catalytic inhibitors of integrase.
The linearized plasmid is incubated for 4 hours in the presence of 0.1 units of the EcoRI enzyme. The enzyme activity is monitored by the appearance of the cleavage products on 1.2% agarose gel.

[5] = target: T2, reverse transcriptase enzyme of the HIV-1 virus (Human immunodeficiency virus type 1 group M subtype B, UniProt P04585); assay: reverse transcriptase activity of lysed viral particles on polyrC/oligo(dG); type: biochemical; settings: polyrC matrix, oligo (dG) primer
T2 construct: endogenous in cells; host or cells: viral particles concentrated from the supernatant of a CEM cell culture, lysed in non-ionic detergent
Procedure: The specificity of the compounds according to the invention for integrase is estimated by an activity test on the reverse transcriptase enzyme of the HIV-1 virus. This test is carried out in the following manner: The viral particles of a supernatant of a CEM cell culture (established lymphocyte line) are concentrated by centrifugation at 30,000 RPM. These viral particles are lysed in a non-ionic detergent and their reverse transcriptase activity is tested on a substrate formed from a hybridized oligo (dG) primer on a polyrC matrix. In the presence of radiolabelled nucleotide dG, the transcriptase activity is expressed by the formation of labelled polynucleotide which can be precipitated in trichloroacetic acid. This confirms that a dideoxynucleotide ddG inhibits the formation of acid precipitatable.

HIV-1 [6] = assay: HIV-1 replication in CEM cells, infectious virus load on Hela β-gal CD4+ cells; type: cell-based; settings: read-out: β-gal activity, 50% effectiveness on production of viral particles, 72 hours, HeLa β-gal colorimetric test, global antiviral effect
Excerpt: This is quantified in two of the following ways:

CEM cells = assay: toxicity on CEM cells, MTT biotransformation test; type: cell-based
Procedure: (§1) The toxicity of the compounds is tested by a biotransformation test of MTT to formazan by cellular mitochondrial dehydrogenases.

HIV-1 [7] = assay: late stages of HIV-1 replication in TNF-activated ACH2 cells, p24 ELISA; type: cell-based; settings: 24 hours; for effect on the production of viral particles (in words): ACH2 cells
Procedure: (§2) The compounds according to the present invention were tested on the late stages of the replication of HIV-1. The test is as follows: The ACH2 cells which integrated HIV-1 viral DNA were used. […] When the cells are used in the presence of TNF, they express the HIV virus from the integrated provirus. The production of viral particles is detected 24 hours after activation. The viral load in the supernatant is quantified by the ELISA p24 test.

ACH2 cells = assay: toxicity on ACH2 cells, MTT biotransformation test; type: cell-based
Procedure: as §1, §2

HIV-1 [8] = settings: 72 hours, ELISA p24
Procedure: The activity test consists of putting the cells of an established lymphocyte line, CEM cells, in contact with a supernatant of infected cells containing the infectious virions. The test is carried out in the following manner: The CEM cells, cultured in suspension in RPMI medium supplemented with 10% of foetal calf serum, are infected with a viral supernatant with a multiplicity of infection of 0.5. After 2 hours of infection, the cells are washed twice with RPMI medium in a manner so as to eliminate the residual viral particles. Finally, the cells are replaced in RPMI medium containing the compound according to the invention. The viral load is evaluated after 72 hours of culture. This is quantified in two of the following ways:
1) The quantity of viral protein p24 is determined by an ELISA test.

Sequence of EcoRI restriction enzyme (P00642 whole entry): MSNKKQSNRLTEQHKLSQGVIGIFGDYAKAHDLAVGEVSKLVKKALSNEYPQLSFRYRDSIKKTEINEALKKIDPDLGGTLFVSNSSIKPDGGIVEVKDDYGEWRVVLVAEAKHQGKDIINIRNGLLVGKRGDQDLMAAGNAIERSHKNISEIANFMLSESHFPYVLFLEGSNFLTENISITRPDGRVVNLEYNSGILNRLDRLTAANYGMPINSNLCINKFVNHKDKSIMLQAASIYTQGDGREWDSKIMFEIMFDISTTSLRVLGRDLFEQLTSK

Structure (SMILES)	IC50 (HIV-1 integrase [1]) [nM]	IC50 (HIV-1 integrase [2]) [nM]	IC50 (HIV-1 integrase [3]) [nM]	anti-integrase activity in the tests for in vitro activity (in words) (HIV-1 integrase [4])	cleavage by EcoRI (in words) (EcoRI restriction enzyme)	reverse transcription inhibition (in words) [5]	EC50 (HIV-1 [6]) [nM]	MTT, toxicity by biotransformation (CEM cells) [µM]	toxicity according to the MTT test (in words) (CEM cells; up to 100 μM, maximum concentration tested)	effect on the production of viral particles (in words) (HIV-1 [7]; above 50 μM)	effect on the production of viral particles (in words) (HIV-1 [7]; concentrations up to 100 μM)	IC50 (HIV-1 [7]; Human immunodeficiency virus 1, ACH-2, ACH2 cells activated by TNF, effect on the late stages, read-out: p24 test, inhibitory 50% concentration) [nM]	MTT, toxicity by biotransformation (ACH2 cells) [µM]	anti-viral effect, production of viral particles / replication in CEM cells (in words) (HIV-1 [8])
O=C(O)c1ccc2ccc(/C=C/c3cc(O)c(O)c(O)c3)nc2c1O [Compound 3, 8-hydroxy-2-[2-[(3.4,5-trihydroxyphenyl)ethenyl]]7-quinoline carboxylic acid]	320	310	56	inhibit the three activites	–	–	–	–	–	–	–	–	–	–
O=C(O)c1ccc2ccc(/C=C/c3ccc(O)c(O)c3)nc2c1O [Compound 1, 8-hydroxy-2-[2-[(3,4-dihydroxyphenyl)ethenyl]]7-quinoline carboxylic acid]	–	–	–	inhibit the three activites	strongly inhibited	no reverse transcription inhibition	4000	>100	devoid of toxicity	slight inhibition	No other significant effect	> 100000	>100	–
O=C([O-])c1ccc2ccc(C=Cc3ccc(O)c(O)c3)nc2c1O.[Na+] [Compound 2, sodium salt of 8-hydroxy-2-[2-[(3,4-dihydroxyphenyl)ethenyl]]7-quinoline-carboxylic acid]	–	–	–	–	–	–	–	–	–	–	–	–	–	blocks the production of viral particules; also recorded: same anti-viral effect
